Data on three compounds can be found in patent US20050192262A1, “Treatment of tumours” (priority 2001, published 2005).

Like-named read-outs stand apart in the source and are kept apart here.

In one series the test system is β-catenin. Description: Western blotting of Dunning AT-1 rat prostate tumours. The series is classed as in vivo. The following applies: Animals II; exposure 80 hours in all arms. Here is the method: (§1) The animal experiment described above was repeated.
Thawed rat tumours from both experiments above were homogenized in ice cold lysis-buffer. (160 mM NaCl, 10 mM HEPES, 2 mM CaCl2, 5% SDS, 0.5% Triton X-100, 100 μg/ml phenyl-metylsulfonyl fluoride, 1 μg/ml leupeptin and 2 μg/ml aprotinin), placed on ice for 15 minutes and following clarification centrifuged for 10 minutes at 13,000 g. Protein content of homogenates were determined by Lowry assay.
Protein in lysates (90 μg) were separated by electrophoresis using 8% SDS-PAGE and separated proteins were transferred onto a nitrocellulose membrane (Amersham) in trans-blot electrophoretic transfer cell (Bio-Rad Laboratories).
After washing in TTBS the blots were reincubated with horseradish peroxidase conjugated secondary antibody (anti-goat antibodies 2020, Santa Cruz) diluted 1:4000 in TTBS containing 3% (w/v) non-fat, dried milk for one hour. Blots were developed using an enhanced chemiluminescence system (ECL, Amersham) and exposed to Hyperfilm ECL (Amersham). Optical density was measured densitometrically.
The blots were striped and rehybridized with antibodies against β-catenin (C-18, sc. 1496) and COX-2 (C-20, sc 1745) antibodies.
In the second animal experiment tumours were investigated for expression of β-catenin, COX-2 and cyclin D1 (A-12, sc. 8396).
(In general: In western blotting, separated proteins are transferred to a membrane and probed.)

A further series has as its system cyclin D1. The description is as above. The class given is in vivo. The following applies: Animals II; exposure 80 hours in all arms. Here is the method: as §1
(§2) Group 1 received a single dose of 10 mg 17α-AED sc. near tumour.
(§3) Group 2 received a single dose of 80 mg 17β-AED in the same way.
(§4) Group 3 received a single dose of 25 mg 17α OH-pregnenolone in the same way.
(§5) Group 4 received a single dose of 7.5 mg 5-androstene-3β,7β,17α-triol.
Protein content of homogenates were determined by Lowry assay.

The next series concerns VEGF. Description: Immunostaining of tumour sections against VEGF. The following applies: Animals II. The series is classed as in vivo, rat. The procedure: Working dilution 1:100. As negative control antibody a mouse IgG, clone DAK-GO1, kappa, ×931, Dako, was used with a working dilution of 1:50.
as §1, §2, §3, §4, §5

The target of series [1] is T1, PPARγ (Mus musculus, UniProt P37238).
T1 construct: made in house; host or cells: E. coli strain Y 1090 (GST-PPARγ); TNT Coupled Reticulocyte Lysate System, Promega (SRC-1)
T1 sequence (P37238 whole entry): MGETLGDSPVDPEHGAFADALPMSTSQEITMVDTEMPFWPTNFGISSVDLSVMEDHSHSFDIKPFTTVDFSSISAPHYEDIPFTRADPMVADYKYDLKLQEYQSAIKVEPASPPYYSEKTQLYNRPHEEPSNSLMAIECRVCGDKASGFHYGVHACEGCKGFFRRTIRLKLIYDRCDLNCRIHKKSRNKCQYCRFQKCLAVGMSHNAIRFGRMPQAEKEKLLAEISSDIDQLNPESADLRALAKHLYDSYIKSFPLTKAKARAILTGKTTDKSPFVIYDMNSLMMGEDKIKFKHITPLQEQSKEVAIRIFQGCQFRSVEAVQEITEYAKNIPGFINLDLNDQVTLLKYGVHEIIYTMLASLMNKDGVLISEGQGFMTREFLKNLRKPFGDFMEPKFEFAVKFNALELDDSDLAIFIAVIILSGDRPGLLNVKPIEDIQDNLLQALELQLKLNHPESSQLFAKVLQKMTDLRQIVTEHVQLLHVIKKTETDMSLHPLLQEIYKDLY
T1 sequence (Q15788 whole entry partner): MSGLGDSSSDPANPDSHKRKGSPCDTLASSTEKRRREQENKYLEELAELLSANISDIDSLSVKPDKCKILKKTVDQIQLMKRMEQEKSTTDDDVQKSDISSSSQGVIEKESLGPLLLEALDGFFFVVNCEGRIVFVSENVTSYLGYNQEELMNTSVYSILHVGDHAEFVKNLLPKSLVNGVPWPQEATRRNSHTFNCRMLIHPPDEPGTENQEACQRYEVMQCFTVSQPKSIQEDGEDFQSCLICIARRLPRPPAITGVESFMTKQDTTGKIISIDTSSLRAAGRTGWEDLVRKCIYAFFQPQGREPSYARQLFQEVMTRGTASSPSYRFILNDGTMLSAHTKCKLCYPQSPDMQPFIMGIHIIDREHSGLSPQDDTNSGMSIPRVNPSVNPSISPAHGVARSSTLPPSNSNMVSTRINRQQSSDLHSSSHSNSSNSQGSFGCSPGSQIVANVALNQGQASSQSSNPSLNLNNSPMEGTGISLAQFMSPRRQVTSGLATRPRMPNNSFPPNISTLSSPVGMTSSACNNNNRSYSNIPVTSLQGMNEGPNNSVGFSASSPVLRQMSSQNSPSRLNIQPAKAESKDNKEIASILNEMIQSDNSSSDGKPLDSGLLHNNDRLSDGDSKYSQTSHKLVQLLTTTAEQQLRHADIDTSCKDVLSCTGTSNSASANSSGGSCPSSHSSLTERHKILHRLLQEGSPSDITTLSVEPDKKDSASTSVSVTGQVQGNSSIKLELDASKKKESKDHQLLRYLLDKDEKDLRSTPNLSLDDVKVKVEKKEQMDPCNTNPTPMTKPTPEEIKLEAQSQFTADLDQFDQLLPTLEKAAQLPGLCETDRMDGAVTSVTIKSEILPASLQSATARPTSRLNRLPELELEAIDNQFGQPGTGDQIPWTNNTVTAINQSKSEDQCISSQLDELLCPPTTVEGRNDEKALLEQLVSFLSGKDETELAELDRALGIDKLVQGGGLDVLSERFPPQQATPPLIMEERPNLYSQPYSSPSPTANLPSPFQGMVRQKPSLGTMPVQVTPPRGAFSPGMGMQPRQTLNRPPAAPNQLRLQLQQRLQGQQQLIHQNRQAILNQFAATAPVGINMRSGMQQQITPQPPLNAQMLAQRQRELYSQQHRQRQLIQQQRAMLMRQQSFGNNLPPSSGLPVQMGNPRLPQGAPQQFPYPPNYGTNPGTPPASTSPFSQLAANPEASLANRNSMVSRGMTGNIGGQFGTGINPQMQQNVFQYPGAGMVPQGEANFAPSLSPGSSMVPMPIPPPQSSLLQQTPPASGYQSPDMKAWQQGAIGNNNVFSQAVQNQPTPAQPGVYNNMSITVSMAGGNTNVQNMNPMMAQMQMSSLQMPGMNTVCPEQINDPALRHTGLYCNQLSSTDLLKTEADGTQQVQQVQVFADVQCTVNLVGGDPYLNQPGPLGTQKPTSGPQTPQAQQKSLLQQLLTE
Description: Ligand-induced coactivator interaction assay (GST-PPARγ / SRC-1). The class given is biochemical. The conditions noted are these: for PPARγ-ligand activity, steroid + liver cytosol + PAPS / PPARγ-ligand activity, native steroid + liver cytosol: second experiment; for PPARγ-ligand activity, steroid + liver cytosol + PAPS: active liver cytosol, sulfate formed in situ; for PPARγ-ligand activity, native steroid + liver cytosol: without PAPS. The procedure:
ApcDNA3-SRC-1 construct was used as template to prepare (^35S-methionine)-SRC-1 by in vitro transcription and translation using the TNT® Coupled Reticulocyte Lysate System (Promega).
Ligand-induced interactions between GST-PPARγ and SRC-1: To generate GST-PPARγ fusion protein, mouse PPARγcDNA was inserted into the NcoI-HindIII sites of pGEX-KG, and protein was then expressed in E. coli, strain Y 1090. The bacteria were lysed by sonication in TEDG buffer (50 mM Tris (pH 7.4), 1.5 mM EDTA, 10% glycerol, 0.4 M NaCl, 0.1 mM DTT) containing the following protease inhibitors: 0.5 mM PMSF, 1 mM benzamidine, 10 μg/ml leupeptin, 10 μg/ml antipain and […] aprotinin. The lysates were centrifuged at 100,000×g for 60 min in a SW 41 rotor using a Beckman L8-70 M ultracentrifuge. The fusion protein was immobilized on GSH Sepharose beads (Pharmacia) and then incubated with potential ligands in (FIG. 5) 10 mM Tris (pH7.4), 0.12 M KCl, 8% glycerol, 4 mM DTT, and 0.5% CHAPS (buffer AA) for 30 min at room temperature. Thereafter, (^35S methionine) SRC-1 (ca 0.1 μCi) was added, and the beads were incubated for another hour at 4° C. and then washed extensively with buffer A. SDS sample buffer was added to the beads, and the samples boiled prior to separation on 7.5% SDS-PAGE. Radioactivity was detected by autoradiography.
α- and β-AED were investigated in above assay for PPARγ ligand activity in 10 and 100 μM solutions in ethanol 10%, in distilled water. 10 μL aliquots of α-AED-solution or β-AED-solution were also added to a preparation of a male rat liver cytosolic preparation prepared as follows:
A homogenate of a rat liver, a known source of steroid sulphotransferase activity, was prepared using a food processor. The liver homogenate was protected from serine-proteases by the addition of 2 mmol of PMSF, 1 mmol of EDTA and 10 mmol Tris-HCl buffered to a pH of 7.40. The homogenate was prepared at 4° C. and then centrifuged at 15000 g for 10 minutes, followed by centrifugation at 100000 g for an hour at 4° C. The supernatant was divided into test tubes containing one of the following steroids: 17β-AED or 17α-AED in 5 μM concentration together with 100 μL of liver cytosol. One test tube served as positive control and contained SCR-1.
In a second experiment the following steroids were tested for activity: 17α-AED, 17OH-pregnenolone and 5-androstene-3β,7β,17α-triol with and without 10 μL of […] (PAPS), Sigma Chemicals, corresponding to 0.1 mg of PAPS. One test tube served as a positive control and contained SRC-1 Instead of steroid. One test tube contained liver cytosol where the steroid sulphotransferase was inactivated by heating to 45° C. for 30 minutes. Tubes were stirred at 20° C. for 1 hour and the contents were investigated in the receptor-coactivator assay for ligand activity (FIG. 5).
17α-AED was treated in the method described by Arnostova, Libuse M.; Pouzar, Vladimir; Drasar, Pavel. Inst. Org. Chem. Biochem., Czech. Acad. Sci., Prague, Czech. Synth. Commun. (1990), 20(10), 1521-9, where acetate is used as protection group and pyridine —SO3 complex as the sulfating agent. Deprotection with an excess of 0.8M NaOH in MeOH-water provides the desired hydroxy sulfate, which is investigated, for PPARγ-activity in the ligand-activated-coactivator receptor assay described above.

Another series concerns DU-145. Briefly: Facscan viability (chlorofluoresceindiacetate / propidiumiodide). The class given is cell-based, human. The following applies: 200 nM 17α-AED + rat liver cytosol + PAPS, Herceptin 1:150, 72 hours. Here is the method:
(§6) Effects of HER-2 and 17α-AED-3β-sulfate in breast and prostate cancer cell lines. Cell cultures of prostate cancer cell lines PC-3 and DU-145 as well as mammary cancer cell lines MCF-7 and SKBR-3 were grown in flasks as previously described in the presence or absence of a 200 nM 17α-AED. Cultures containing 17α-AED were further subdivided and these cultures were grown in the presence or absence of Herceptin®, her-2 antibodies, using a stem solution of 1 mg/ml which was further diluted, making the final concentration 1:150 In the cell suspension.
(§7) Representations of each cell line containing no steroid were also treated with herceptin as above. For each cell line and variation of treatment 3 different culture flasks were used.
(§8) Further, a mixture of 100 μL rat liver cytosol and 20 μL of 3′-phosphoadenosine-5′-phosphosulphate (PAPS), corresponding to approximately 0.16 mg of PAPS was shared between and added to cultures containing 17α-AED.
(§9) Finally, for each cell line three samples were kept as untreated controls.
(§10) To estimate the number of viable cells a solution of chlorofluoresceindiacetate was added to the cultures on the last day of culture. This chemical penetrates freely into cells, but is metabolized in the living cell into a form with green fluorescence unable to leave the cell. As counterstaining, to detect dead cells, propidiumiodide, giving a red fluorescence, was added 15 minutes before analyzing the samples in a Facscan. Time for 10000 cells to pass the detector in the Facscan was estimated in order to detect a possible growth inhibitory effect, not resulting in an increased number of dead cells.

The next series relates to MCF-7. The series is described as above. The series is classed as cell-based, human. The conditions noted are these: 200 nM 17α-AED + rat liver cytosol + PAPS, Herceptin 1:150, 72 hours. The procedure:
as §6, §7, §8, §9, §10

The test system of another series is PC-3. The description is as above. The conditions noted are these: 200 nM 17α-AED + rat liver cytosol + PAPS, Herceptin 1:150, 72 hours. The class given is cell-based, human. Here is the method: as §6, §7, §8, §9, §10
The next series concerns SKBR-3. Described as above. The class given is cell-based, human. The following applies: 200 nM 17α-AED + rat liver cytosol + PAPS, Herceptin 1:150, 72 hours. The procedure:
as §6, §7, §8, §9, §10

For series [2], the system named is PPARγ. Briefly: Western blotting cell lines. The class given is cell-based, human. From the text:
(§11) Protein blotting was repeated for DU-145 and PC-3 cell lines, which were also investigated for expression of PPARδ through antibody (H-74, sc 7197).

A further series relates to PPARδ. Briefly: Western blotting cell lines. The class given is cell-based, human. The conditions noted are these: PC-3 and DU-145.
From the text: as §11

The subject of series [3] is Dunning R 3327, AT-1, rat prostatic tumour. Briefly: Tumour growth after s.c. injection near tumour. The class given is in vivo. The conditions noted are these: Animals II; single s.c. injection in the proximity of the tumour. Here is the method:
as §1, §2, §3, §4, §5
A fifth group served as tumour bearing controls.

Consider `C[C@]12CC[C@H]3[C@@H]([C@@H](O)C=C4C[C@@H](O)CC[C@@]43C)[C@@H]1CC[C@H]2O` [5-androstene-3β,7β,17α-triol, 3β,7β,17α-trihydroxy-androst-5-en], for which the “expression of β-catenin” value in the series with β-catenin is “down-regulation”. Moreover, the “expression of cyclin D1” value in the series on cyclin D1 is reported as “down-regulation”. Besides, the “staining for VEGF” value in the series with VEGF is “almost complete disappearance of detectable VEGF In tumours in 2 cases, a modest downregulation in 1 and unchanged appearance in 1”. In addition, at PPARγ [1], the “PPARγ-ligand activity, steroid + liver cytosol + PAPS” value was “insignificant responses” and the “PPARγ-ligand activity, native steroid + liver cytosol” value was “insignificant responses”.

Consider `C[C@]12CC[C@H]3[C@@H](CC=C4C[C@@H](OS(=O)(=O)O)CC[C@@]43C)[C@@H]1CC[C@H]2O` [17α-AED-3βsulfate, 5-androstene-17α-ol-3β-sulfate], for which the dead in the series on DU-145 is 18%; in the series with MCF-7, 15%; in the series with PC-3, 12%; with SKBR-3 it was 21%. For the same compound, the viable with DU-145 was determined as 70%; in the series on MCF-7, 75%; with PC-3, 81%; in the series with SKBR-3, 66%. Besides, the entries for the “PPARγ-ligand activity of the 3β-sulfate” value on PPARγ [1] and on PPARγ [1] (listed as 5-androstene-17α-ol-3β-sulfate) were “shows PPARγ-activity” and “only sample demonstrating PPARγ-ligand activity”, respectively. In addition, the “expression of PPARγ” value in the series with PPARγ [2] (DU-145, 100 nM, repeated experiment) is “Expression of PPARγ was observed”; in the series with PPARγ [2] (both cell lines (PC-3, DU-145)), “increased the expression of PPARγ significantly”. Besides, the PPARγ expression entry in the series with PPARγ [2] (PC-3 cells, 100 nM, repeated experiment) was “increased”. For the same compound, the “expression of PPARδ” value in the series on PPARδ is “no effect”.

Turning to `CC(=O)[C@@]1(O)CC[C@H]2[C@@H]3CC=C4C[C@@H](O)CC[C@]4(C)[C@H]3CC[C@@]21C` [17αOH-pregnenolone, 17-hydroxy-pregnenolone (17α-OH)], the “expression of β-catenin” value in the series with β-catenin was “same pattern, but even more marked”. In addition, in the series with cyclin D1, the “expression of cyclin D1” value is recorded as “same pattern, but even more marked”. Further, the “staining for VEGF” value in the series with VEGF was “almost complete disappearance of staining for VEGF”. For the same compound, in [3], the tumour volumes is given as around −50%. For the same compound, on PPARγ [1], the “PPARγ-ligand activity, steroid + liver cytosol + PAPS” value is recorded as “insignificant responses” and the “PPARγ-ligand activity, native steroid + liver cytosol” value is reported as “insignificant responses”.
